According to US11384062B2 (CombiPhos Catalysts, Inc., priority 2017, dated 2022):

Assays:
HL-60(TB) = conditions: 10 μM single dose; Leukemia HL-60(TB)
EKVX = conditions: 10 μM single dose; Non-Small Cell Lung Cancer EKVX
From the text: (§1) The test compounds were screened for anticancer activity at the Development Therapeutic Program (DTP), National Cancer Institute (NCI), USA, against a full NCI 59 cell line panel (six cell lines of leukemia, nine cell lines of lung cancer, seven cell lines of colon cancer, six cell lines of CNS cancer, nine cell lines of melanoma, seven cell lines of ovarian cancer, seven cell lines of renal cancer, two cell lines of prostate cancer, and six cell lines of breast cancer) representing nine human systems in total as leukemia, melanoma, and cancers of the lungs, colon, brain, breast, ovary, kidney, and prostate, according to the applied protocol. A primary in vitro one dose anticancer assay was performed at a single dose (10 μM) against the full NCI 59 cell line panel. The one dose data was reported as a mean graph of the percent growth of treated cells. The number reported for the single dose assay was growth relative to the no drug control and relative to the initial number of cells at time 0. […] A value of −40 means 40% lethality. A value of −100 means all cells are dead.

OVCAR-4 = conditions: 10 μM single dose; Ovarian Cancer OVCAR-4
From the text: as §1

OVCAR-8 = conditions: 10 μM single dose; Ovarian Cancer OVCAR-8
From the text: as §1

NCI/ADR-RES = conditions: 10 μM single dose; Ovarian Cancer NCI/ADR-RES
From the text: as §1

NCI-H322M = conditions: 10 μM single dose; Non-Small Cell Lung Cancer NCI-H322M
From the text: as §1

SW-620 = conditions: 10 μM single dose; Colon Cancer SW-620
From the text: as §1

TK-10 = conditions: 10 μM single dose; Renal Cancer TK-10
From the text: as §1

SK-MEL-5 = conditions: 10 μM single dose; Melanoma SK-MEL-5
From the text: as §1

ACHN = conditions: 10 μM single dose; Renal Cancer ACHN
From the text: as §1

A549/ATCC = conditions: 10 μM single dose; Non-Small Cell Lung Cancer A549/ATCC
From the text: as §1

MDA-MB-468 = conditions: 10 μM single dose; Breast Cancer MDA-MB-468
From the text: as §1

HCT-116 = conditions: 10 μM single dose; Colon Cancer HCT-116
From the text: as §1

MCF7 = conditions: 10 μM single dose; Breast Cancer MCF7
From the text: as §1

MDA-MB-435 = conditions: 10 μM single dose; Melanoma MDA-MB-435
From the text: as §1

SK-MEL-28 = conditions: 10 μM single dose; Melanoma SK-MEL-28
From the text: as §1

NCI-H226 = conditions: 10 μM single dose; Non-Small Cell Lung Cancer NCI-H226
From the text: as §1

CCRF-CEM = conditions: 10 μM single dose; Leukemia CCRF-CEM
From the text: as §1

SN12C = conditions: 10 μM single dose; Renal Cancer SN12C
From the text: as §1

SK-MEL-2 = conditions: 10 μM single dose; Melanoma SK-MEL-2
From the text: as §1

COLO 205 = conditions: 10 μM single dose; Colon Cancer COLO 205
From the text: as §1

U251 = conditions: 10 μM single dose; CNS Cancer U251
From the text: as §1

NCI-H23 = conditions: 10 μM single dose; Non-Small Cell Lung Cancer NCI-H23
From the text: as §1

HT29 = conditions: 10 μM single dose; Colon Cancer HT29
From the text: as §1

SF-268 = conditions: 10 μM single dose; CNS Cancer SF-268
From the text: as §1

786-0 = conditions: 10 μM single dose; Renal Cancer 786-0
From the text: as §1

BT-549 = conditions: 10 μM single dose; Breast Cancer BT-549
From the text: as §1

NCI-H522 = conditions: 10 μM single dose; Non-Small Cell Lung Cancer NCI-H522
From the text: as §1

IGROV1 = conditions: 10 μM single dose; Ovarian Cancer IGROV1
From the text: as §1

KM12 = conditions: 10 μM single dose; Colon Cancer KM12
From the text: as §1

UACC-62 = conditions: 10 μM single dose; Melanoma UACC-62
From the text: as §1

SK-OV-3 = conditions: 10 μM single dose; Ovarian Cancer SK-OV-3
From the text: as §1

MALME-3M = conditions: 10 μM single dose; Melanoma MALME-3M
From the text: as §1

PC-3 = conditions: 10 μM single dose; Prostate Cancer PC-3
From the text: as §1

MOLT-4 = conditions: 10 μM single dose; Leukemia MOLT-4
From the text: as §1

HOP-92 = conditions: 10 μM single dose; Non-Small Cell Lung Cancer HOP-92
From the text: as §1

Structure (SMILES): [2H]c1c([2H])c(-n2nc3c(C(N)=O)cccc3c2[2H])c([2H])c([2H])c1C1CCCNC1 (racemic) [Example 11, 2-(4-(piperidin-3-yl)phenyl-2,3,5,6-d4)-2H-indazole-3-d-7-carboxamide]
- Growth Percentage (HL-60(TB)): 69.13%
- Growth Percentage (EKVX): 91.65%
- Growth Percentage (OVCAR-4): 103.47%
- Growth Percentage (OVCAR-8): 84.66%
- Growth Percentage (NCI/ADR-RES): 89.85%
- Growth Percentage (NCI-H322M): 85.94%
- Growth Percentage (SW-620): 72.01%
- Growth Percentage (TK-10): 102.70%
- Growth Percentage (SK-MEL-5): 91.06%
- Growth Percentage (ACHN): 72.39%
- Growth Percentage (A549/ATCC): 70.16%
- Growth Percentage (MDA-MB-468): 87.13%
- Growth Percentage (HCT-116): 81.62%
- Growth Percentage (MCF7): 69.21%
- Growth Percentage (MDA-MB-435): 91.99%
- Growth Percentage (SK-MEL-28): 101.33%
- Growth Percentage (NCI-H226): 92.42%
- Growth Percentage (CCRF-CEM): 68.34%
- Growth Percentage (SN12C): 81.90%
- Growth Percentage (SK-MEL-2): 108.51%
- Growth Percentage (COLO 205): 79.11%
- Growth Percentage (U251): 92.89%
- Growth Percentage (NCI-H23): 82.01%
- Growth Percentage (HT29): 87.71%
- Growth Percentage (SF-268): 82.89%
- Growth Percentage (786-0): 97.43%
- Growth Percentage (BT-549): 91.44%
- Growth Percentage (NCI-H522): 89.79%
- Growth Percentage (IGROV1): 74.29%
- Growth Percentage (KM12): 83.99%
- Growth Percentage (UACC-62): 76.75%
- Growth Percentage (SK-OV-3): 94.12%
- Growth Percentage (MALME-3M): 92.14%
- Growth Percentage (PC-3): 68.67%
- Growth Percentage (MOLT-4): 71.06%
- Growth Percentage (HOP-92): 79.03%

Structure (SMILES): [2H]c1c([2H])c(C2([2H])C([2H])NC([2H])C([2H])C2[2H])c([2H])c([2H])c1-n1cc2cccc(C(N)=O)c2n1 (stereo not drawn) [Example 4, 2-(4-(piperidin-3-yl-2,3,4,5,6-d5)phenyl-2,3,5,6-d4)-2H-indazole-7-carboxamide]
- Growth Percentage (HL-60(TB)): 77.68%
- Growth Percentage (EKVX): 88.21%
- Growth Percentage (OVCAR-4): 98.64%
- Growth Percentage (OVCAR-8): 82.86%
- Growth Percentage (NCI/ADR-RES): 84.74%
- Growth Percentage (NCI-H322M): 84.01%
- Growth Percentage (SW-620): 72.23%
- Growth Percentage (TK-10): 96.15%
- Growth Percentage (SK-MEL-5): 91.65%
- Growth Percentage (ACHN): 72.83%
- Growth Percentage (A549/ATCC): 67.08%
- Growth Percentage (MDA-MB-468): 86.59%
- Growth Percentage (HCT-116): 77.22%
- Growth Percentage (MCF7): 64.30%
- Growth Percentage (MDA-MB-435): 92.97%
- Growth Percentage (SK-MEL-28): 98.37%
- Growth Percentage (NCI-H226): 91.01%
- Growth Percentage (CCRF-CEM): 89.50%
- Growth Percentage (SN12C): 89.59%
- Growth Percentage (SK-MEL-2): 101.94%
- Growth Percentage (COLO 205): 82.07%
- Growth Percentage (U251): 83.63%
- Growth Percentage (NCI-H23): 84.26%
- Growth Percentage (HT29): 77.66%
- Growth Percentage (SF-268): 89.52%
- Growth Percentage (786-0): 92.79%
- Growth Percentage (BT-549): 99.58%
- Growth Percentage (NCI-H522): 87.37%
- Growth Percentage (IGROV1): 73.75%
- Growth Percentage (KM12): 87.65%
- Growth Percentage (UACC-62): 85.29%
- Growth Percentage (SK-OV-3): 90.49%
- Growth Percentage (MALME-3M): 79.53%
- Growth Percentage (PC-3): 85.40%
- Growth Percentage (MOLT-4): 78.10%
- Growth Percentage (HOP-92): 90.59%

Structure (SMILES): [2H]C1([2H])NC([2H])([2H])C([2H])(c2ccc(-n3cc4cccc(C(N)=O)c4n3)cc2)C([2H])([2H])C1([2H])[2H] (racemic) [Example 3, 2-(4-(piperidin-3-yl-2,2,3,4,4,5,5,6,6-d9)phenyl)-2H-indazole-7-carboxamide]
- Growth Percentage (HL-60(TB)): 89.31%
- Growth Percentage (EKVX): 100.49%
- Growth Percentage (OVCAR-4): 106.31%
- Growth Percentage (OVCAR-8): 81.93%
- Growth Percentage (NCI/ADR-RES): 97.76%
- Growth Percentage (NCI-H322M): 98.96%
- Growth Percentage (SW-620): 84.69%
- Growth Percentage (TK-10): 98.41%
- Growth Percentage (SK-MEL-5): 93.38%
- Growth Percentage (ACHN): 77.21%
- Growth Percentage (A549/ATCC): 67.74%
- Growth Percentage (MDA-MB-468): 109.78%
- Growth Percentage (HCT-116): 83.66%
- Growth Percentage (MCF7): 75.22%
- Growth Percentage (MDA-MB-435): 98.88%
- Growth Percentage (SK-MEL-28): 107.36%
- Growth Percentage (NCI-H226): 93.61%
- Growth Percentage (CCRF-CEM): 87.92%
- Growth Percentage (SN12C): 93.25%
- Growth Percentage (SK-MEL-2): 117.90%
- Growth Percentage (COLO 205): 94.82%
- Growth Percentage (U251): 85.78%
- Growth Percentage (NCI-H23): 91.99%
- Growth Percentage (HT29): 93.28%
- Growth Percentage (SF-268): 88.94%
- Growth Percentage (786-0): 103.31%
- Growth Percentage (BT-549): 113.02%
- Growth Percentage (NCI-H522): 83.10%
- Growth Percentage (IGROV1): 83.23%
- Growth Percentage (KM12): 99.34%
- Growth Percentage (UACC-62): 84.84%
- Growth Percentage (SK-OV-3): 96.60%
- Growth Percentage (MALME-3M): 91.23%
- Growth Percentage (PC-3): 80.86%
- Growth Percentage (MOLT-4): 86.53%
- Growth Percentage (HOP-92): 98.72%
